Experimental data taken from patent US20090048295A1, “SUBSTITUTED 5,6,7,8-TETRAHYDROQUINOLINE DERIVATIVES, COMPOSITIONS, AND METHODS OF USE THEREOF” (priority 2007, published 2009).
Where “and” joins values, the source holds several entries; their conditions need not be identical. Equal values may be shown once.

Experiments:
C5a receptor [1] = target: T1, C5a receptor (Homo sapiens, UniProt P21730); assay: [125I]-C5a Radioligand Binding Assay (competition binding, differentiated U937 cells); conditions: [125I]-C5a 0.05 nM, U937 cells, multiple values = duplicate experiments; for inhibition at 1 µM: read-out: [125I]-C5a Binding % Inhibition 1 μM, test compound 1 μM; for inhibition at 10 µM: read-out: [125I]-C5a Binding % Inhibition 10 μM, test compound 10 μM; for [125I]-C5a Binding % Inhibition 1 μM: test compound 1 μM; for [125I]-C5a Binding % Inhibition 10 μM: test compound 10 μM;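 as to all read-outs here: cells preincubated with compound 30 min at room temperature, then 60 min at 4 °C with radioligand, bound counts read by scintillation, nonspecific binding defined with 100 nM C5a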
T1 sequence (P21730 1-350): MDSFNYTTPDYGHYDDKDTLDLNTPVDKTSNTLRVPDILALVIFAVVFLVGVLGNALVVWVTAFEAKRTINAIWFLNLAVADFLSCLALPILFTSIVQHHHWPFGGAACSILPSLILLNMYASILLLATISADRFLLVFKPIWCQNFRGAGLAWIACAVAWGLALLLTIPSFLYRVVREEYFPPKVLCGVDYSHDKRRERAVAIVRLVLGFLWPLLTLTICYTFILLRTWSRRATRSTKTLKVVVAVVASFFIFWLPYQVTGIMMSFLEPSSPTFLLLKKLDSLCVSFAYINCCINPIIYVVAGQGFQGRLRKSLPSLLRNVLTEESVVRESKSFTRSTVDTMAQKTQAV

C5a receptor [2] = target: T1, C5a receptor
C5a receptor [3] = target: T1, C5a receptor; assay: Calcium Mobilization Assay (C5a-induced Ca2+ mobilization, FLIPR, differentiated U937 cells); format: cell-based; parameters: endogenous in cells; host or cells: U937 cells differentiated with dibutyryl cAMP; conditions: […] recombinant human C5a, 20 min pre-incubation, multiple values = duplicate experiments, read-out: C5a Induced Ca Mobil. Average IC50
Experimental: U937 cells (human monocytic cell line) were cultured in RPMI-1640 medium supplemented with 10% fetal bovine serum, 10 mM HEPES, 0.11 g/L pyruvate, 0.29 g/L L-glutamine, 100 IU/mL penicillin G and […] streptomycin. Dibutyryl cAMP (1 mM) was added to induce differentiation 2 or 3 days prior to loading the cells with 4.4 μM Fluo-3AM (Molecular Probes) for 30 min at 37° C. in RPMI medium containing 20 mM HEPES, 0.1% bovine serum albumin (BSA) and 5 mM probenecid. After washing, cells were dissolved at 2×10^6 cells/ml in HBSS buffer (Invitrogen 14190-094) supplemented with 10 mM HEPES, 2.5 mM probenecid and 0.1% BSA (pH=7.4), and sedimented by 1 min centrifugation (1500 rpm) in black 96-well plates (Costar) (200,000 cells/well). A 100× concentration range of test compounds was prepared in DMSO and further diluted in HBSS buffer. U937 cells were pre-incubated with compound for 20 minutes at room temperature (1% DMSO), before recombinant human C5a (Sigma) was added to the cells (1.5 nM). Changes in intracellular free Ca^2+ concentration were measured using the Fluorescent Imaging Plate Reader (FLIPR, Molecular Devices). Fluorescence was recorded every second from 10 seconds before the addition of C5a until 2 min after the addition. The maximal fluorescence obtained during this time frame was used for further calculations.

Row | Structure (SMILES) | inhibition at 1 µM (C5a receptor [1]) [%] | inhibition at 10 µM (C5a receptor [1]) [%] | Ki (C5a receptor [2]) [µM] | IC50 (C5a receptor [3]) [µM] | [125I]-C5a Binding % Inhibition 1 μM (C5a receptor [1]) | [125I]-C5a Binding % Inhibition 10 μM (C5a receptor [1])
1 | CCc1cccc(CC)c1-c1cc(OC)c2c(n1)CCCC2Nc1cc(OC)ccc1C (stereo not drawn) [Compound 11] | 88 | 92 | 0.01 |  | 96% | 97%
2 | CCc1cccc(CC)c1-c1cc(OC)c2c(n1)CCCC2N1CCc2ccccc2C1 (stereo not drawn) [Compound 31] |  | 87 | 0.035 |  | 77% and 94% and 96% and 69% | 101% and 100% and 83%
3 | COc1cc(-c2c(C)cccc2C)nc2c1C(N(C)c1cccc(Cl)c1C)CCC2 (stereo not drawn) [Compound 115] | 75 | 80 |  | > 10 |  | 
4 | COc1ccc2cccc(N(C)C3CCCc4nc(-c5c(C)cccc5C)cc(OC)c43)c2c1 (stereo not drawn) [Compound 116] | 87 | 86 |  | > 10 |  | 
5 | COc1cccc(N(C)C2CCCc3nc(-c4c(C)cccc4C)cc(OC)c32)c1C (stereo not drawn) [Compound 117] |  |  |  | > 10 | 86% | 85%
6 | CCc1cccc(CC)c1-c1cc(OC)c2c(n1)CCCC2Nc1c(C)ccc2ccccc12 (stereo not drawn) [Compound 119] | 64 | 74 |  | > 10 |  | 
7 | CCc1cccc(CC)c1-c1cc(OC)c2c(n1)CCCC2Nc1cccc2c1CCC2 (stereo not drawn) [Compound 121] | 59 | 75 |  | > 10 |  | 
8 | CCc1cccc(CC)c1-c1cc(OC)c2c(n1)CCCC2N(C)Cc1ccccc1 (stereo not drawn) [Compound 123] | 3 | 39 |  | > 10 |  | 
9 | CCc1cccc(CC)c1-c1cc(OC)c2c(n1)CCCC2N(C)C1CCCCC1 (stereo not drawn) [Compound 124] | 2 | 33 |  | > 10 |  | 
10 | CCc1cccc(CC)c1-c1cc(OC)c2c(n1)CCCC2N(C)Cc1cccnc1 (stereo not drawn) [Compound 125] | -11 | 45 |  | > 10 |  | 
11 | CCc1cccc(CC)c1-c1cc(OC)c2c(n1)CCCC2N1CCCC1 (stereo not drawn) [Compound 126] | -11 | 18 |  | > 10 |  | 
12 | CCc1cccc(CC)c1-c1cc(OC)c2c(n1)CCCC2N1CCc2cc(C(=O)O)ccc2C1 (stereo not drawn) [Compound 128] | -25 | -9 |  | > 10 |  | 
13 | CCc1cccc(CC)c1-c1cc(OC)c2c(n1)CCCC2N1CCc2c(cccc2C(=O)O)C1 (stereo not drawn) [Compound 129] | -46 | -20 |  | > 10 |  | 
14 | CCc1cccc(CC)c1-c1cc(OC)c2c(n1)CCCC2N1CCc2cccc(C(=O)O)c2C1 (stereo not drawn) [Compound 130] | -24 | -13 |  | > 10 |  | 
15 | CCc1cccc(CC)c1-c1cc(OC)c2c(n1)CCCC2N1CCc2ccc(C(=O)O)cc2C1 (stereo not drawn) [Compound 131] | -26 | -9 |  | > 10 |  | 
16 | CCN(c1cccc2ccccc12)C1CCCc2nc(-c3ccccc3)cc(OC)c21 (stereo not drawn) [Compound 133] |  |  | 8.29 |  |  | 
17 | CCc1cccc(CC)c1-c1cc(OC)c2c(n1)CCCC2N(CC)c1ncnc2ccccc12 (stereo not drawn) [Compound 135] | 16 | 47 |  | > 10 |  | 

The remaining lines, values ahead:

Row | inhibition at 1 µM (C5a receptor [1]) [%] | inhibition at 10 µM (C5a receptor [1]) [%] | Ki (C5a receptor [2]) [µM] | IC50 (C5a receptor [3]) [µM] | [125I]-C5a Binding % Inhibition 1 μM (C5a receptor [1]) | [125I]-C5a Binding % Inhibition 10 μM (C5a receptor [1]) | Structure (SMILES)
18 | 91 | 97 | 0.013 | 0.071 |  |  | CCc1cccc(CC)c1-c1cc(OC)c2c(n1)CCCC2Nc1ccc(Cl)cc1CO (stereo not drawn) [Compound 9]
19 | 93 | 94 | 0.0097 | 0.266 | 96% | 99% | CCc1cccc(CC)c1-c1cc(OC)c2c(n1)CCCC2N1CCc2cccc(C(F)(F)F)c2C1 (stereo not drawn) [Compound 26]
20 |  |  | 0.057 | 1.9 | 91% | 89% | CCc1cccc(CC)c1-c1cc(OC)c2c(n1)CCC[C@@H]2N(C)[C@@H]1CCCc2ccccc21 [Compound 59]
21 |  |  |  | > 10 | 17% | 51% | CCc1cccc(CC)c1-c1cc(OC)c2c(n1)CCCC2N(C)CCc1ccccc1 (stereo not drawn) [Compound 87]
22 | 25 | 51 |  | > 10 |  |  | CCc1cccc(CC)c1-c1cc(OC)c2c(n1)CCCC2NC1Cc2ccccc2C1 (stereo not drawn) [Compound 88]
23 |  |  |  | > 10 | 20% | 60% | CCc1cccc(CC)c1-c1cc(OC)c2c(n1)CCCC2N(C)CCCc1ccccc1 (stereo not drawn) [Compound 91]
24 | 24 | 62 |  | > 10 |  |  | CCc1cccc(CC)c1-c1cc(OC)c2c(n1)CCCC2N(C)Cc1ccco1 (stereo not drawn) [Compound 92]
25 | 68 | 80 |  | > 10 |  |  | CCc1cccc(CC)c1-c1cc(OC)c2c(n1)CCCC2N1CCc2ccccc21 (stereo not drawn) [Compound 93]
26 | 56 | 77 |  | > 10 |  |  | CCc1cccc(CC)c1-c1cc(OC)c2c(n1)CCCC2N(C)Cc1cccs1 (stereo not drawn) [Compound 94]
27 | 77 | 87 |  | > 10 |  |  | CCc1cccc(CC)c1-c1cc(OC)c2c(n1)CCCC2N1CCc2ccc(C#N)cc2C1 (stereo not drawn) [Compound 96]
28 | 47 | 59 |  | > 10 |  |  | CCc1cccc(CC)c1-c1cc(OC)c2c(n1)CCCC2N1CCc2ccc(C(=O)OC)cc2C1 (stereo not drawn) [Compound 97]
29 | 43 | 70 |  | > 10 |  |  | CCc1cccc(CC)c1-c1cc(OC)c2c(n1)CCCC2N1CCc2cc(C(=O)OC)ccc2C1 (stereo not drawn) [Compound 98]
30 | 59 | 76 |  | > 10 |  |  | CCc1cccc(CC)c1-c1cc(OC)c2c(n1)CCCC2N1CCc2c(cccc2C(=O)OC)C1 (stereo not drawn) [Compound 99]
31 | 74 | 80 |  | > 10 |  |  | CCc1cccc(CC)c1-c1cc(OC)c2c(n1)CCCC2N1CCc2cc(C(F)(F)F)ccc2C1 (stereo not drawn) [Compound 102]
32 | 56 | 64 |  | > 10 |  |  | CCc1cccc(CC)c1-c1cc(OC)c2c(n1)CCCC2N(C)c1cccc2ccccc12 (stereo not drawn) [Compound 104]
33 | 55 | 70 |  | > 10 |  |  | CCc1cccc(CC)c1-c1cc(OC)c2c(n1)CCCC2Oc1cccc2ccccc12 (stereo not drawn) [Compound 105]
34 | 77 | 82 |  | > 10 |  |  | COc1cc(-c2c(C)cccc2C)nc2c1C(N(C)c1cc(C)ccc1C(C)C)CCC2 (stereo not drawn) [Compound 110]
35 | 82 | 85 |  | > 10 |  |  | COc1cc(-c2c(C)cccc2C)nc2c1C(Oc1cc(C(C)C)ccc1C)CCC2 (stereo not drawn) [Compound 111]
36 | 36 | 70 |  | > 10 |  |  | COc1cc(-c2c(C)cccc2C)nc2c1C(N(C)c1cccc3c1CCN(C)C3)CCC2 (stereo not drawn) [Compound 112]
37 |  |  |  | > 10 | 33% | 54% | COc1cc(-c2c(C)cccc2C)nc2c1C(N(C)c1cccc3[nH]ccc13)CCC2 (stereo not drawn) [Compound 113]
